Columns and labels:
[1] = tested on: PCA in rat; experiment: Passive cutis anaphylactic reaction (PCA); type: in vivo; details: 0.1 g/kg
Method: The rats were injected with the egg albumn at 10 mg/kg in the muscle. At the same time, all the rats were injected with 2×10^10 (0.2 ml) bordetella pertussis in the abdominal cavity for sensitization. 2 weeks later, all the rats were killed to sample the blood. All the blood samples were separated for preparing the serum.
60 rats, 150˜200 g, half male and half female, were divided into 6 groups at random. In the light narcosis condition induced by aether, each rat was cut the fleece in the back and injected with the 2 concentrations of anti-egg-album serum 0.1 ml under the skin at the fairless place. The serums were diluted on the rates of 1:5(d1) and 1:10(d2) before the experiment. 48 hours later, all the rats were attacked by intravenous injecting the 0.5% evans blue normal saline solution 1 ml which containing 1 mg egg albumin. 20 minutes later, the rats were killed by decapitation. The rats' back skin were dissected and turned over. According to the dark and light and area of the blue stains exudated from the vessels, all the rats were evaluated by several people. The skin stained by the evens blue were scissored and soaked in 5 ml 0.1% sodium sulfate acetone (7:3) solution for 48 hours. Then it was centrifugated to separate the supernatant liquor. The supernates were measured the optical density at the wavelength 590 nm to calculate the degree of the PCA reaction and the inhibiting percent.

[2] = tested on: DTH caused by DNFB; experiment: Delayed hypersensitivity (DTH) caused by DNFB in the mouse ear; type: in vivo, NIH mouse; details: 0.003 g/kg, administration day 0˜5
Method: Each mouse was led to hypersensitivity reaction by using the 1% DNFB acetone solution on the dosage of 0.025 ml at the right place of the abdomen where the pilus had been cut yet. Using the same solution on the same place was to enhance the hypersensitivity reaction on the third day. On the fifth day, all the mice were smeared with the 1% DNFB edible oil solution at the mice's right ears on the dosage of 0.01 ml each. 24 hours later, all the mice were killed. The mouse's 2 ears were weighted by the torsion balance and the difference of the 2 ears was recorded as the DTH degree caused by the DNFB. The experiment was carried out on the different immune and administration processes.
The immune and administration processes is as following: [drawing 1]

[3] = tested on: croton oil-induced swelling; experiment: Croton oil-induced swelling of the ears; type: in vivo, NIH mice; details: 0.003 g/kg, 3 days
Method: 60 NIH mice with weight of 18˜22 g, male and female accounting for half and half, were divided into 6 groups, which were drenched with the same volume and different dosage of drug liquid or tragacanth liquid, once a day, lasting 3 days. 1 hour after the final administration, 2% croton oil mixure of 0.02 ml was embrocated uniformly on the both sides of left ears of mice, and after 4 hours, the mice were snapped off its cervical vertebra and put to death. The left and right ears were cut down, then inflammatory and control ears were weighted by certain means. Difference of weight between left and right ears was the swelling extent of ears, results showing in table 11.

[4] = tested on: pleuritis induced by the carrageenan; experiment: Carrageenan pleuritis: exudation and inflammatory cell aggregation; type: in vivo, mice; details: 0.05 g/kg
Method: The mice were divided into 5 groups at random and injected with 0.5% Evans blue NS solution into the caudal vein on the dosage of 0.1 ml/10 g. Then the mice were injected with the 0.03 ml 1% carrageenan in the right chest cavity with the special syring niddle. 4 hours and 32 hours after the injection, the correspondent mice were killed and opend the obdominal cavity to expose the diaphragm. 2 ml of the lotion were injected to the chest cavity by 2 times with a 1 ml injector. The lotion was collected and saved in a test tube. 20 μl of the lotion collected was added into the 400 μl WBC dilution. The WBC in the mixed dilution was counted under the microscope. The rest of the lotion was centrifuged at 3000 rpm for 10 min. The supernate of the lotion was measured the OD at the wavelength of 600 nm. The OD value of the sample should be corrected with the correspondent OD value of the pure lotion. (See the result in table 9)

[5] = tested on: capillary permeability; experiment: Capillary permeability induced by acetic acid in the abdominal cavity; type: in vivo, NIH mice; details: 0.15 g/kg, qd × 3
Method: 90 NIH mice, 18˜22 g weight, half male and half female, were divided into 9 groups and drenched with the correspondent medicine solutions of the same volumn. The medicines were drenched once a day for 3 days or just 1 time. 1 hour after the last administration, each mouse were injected with 0.7% HAC-NS solution into the abdominal cavity. At the same time, each mouse was injected with the 0.5% Evans blue-NS solution into the vessel on the dose of 0.1 ml/10 g. 30 min later; all the mice were killed by cervical disjoint. The abdominal cavity was opened and washed by the 5 ml NS. The NS used was collected and adjusted to 8 ml by the pure NS as the sample. The samples were centrifuged at 3000 rpm to get the supernate. The supernate was measured the OD at the wavelength at 590 nm. (See the result in table 8)

[6] = tested on: macrophage; experiment: CRBC phagocytosis of abdominal macrophages; type: in vivo, mouse; details: 0.005 g/kg, 7 days
Method: 50 NIH mice, 18˜22 g weight, half male and half female, were divided into 5 groups and drenched with the correspondent medicine solutions on the same volumn. The administration was once a day for 7 days. 1 hour after the last administration, all the mice were injected with 0.2 ml 10% chick RBC into the abdominal carvity. 4 hours later, all the mice were killed and sampled the fluid in the abdomincal carvity. The liquor samples were dropped on the glass and counted the number of the macrophage which had phagocytized the CRBC and the number of the CRBC in one macrophage. (See the result in table 7)

[7] = Organ index of AA rats (prevention experiment); type: in vivo, SD rats
Method: (§1) 72 isogenous SD rats of the same batch, half male and half female, 180˜220 g weight, were divided randomly into 6 groups. Each group has 12 rats. Every 6 rats lived in a cage. The perimeter of the double anklejoints and the feet of the rat were measured accurately and recorded as the normal value. All the rats were drenched by the same volume of the invented medicine on the correspondent concentration or the solution of the Xihuangqi by the gastic injection. 1 hour later, all the rats were injected with 0.1 ml Freund's complete adjuvant (FCA) under the skin of the left postpedes. In the next 30 days, all the rats were drenched with the correspondent medicine once a day on the same dosage. And in these days, the rats were measured of the perimeters of the double anklejoints and the feet once a day. In this experiment, the swelling degree (Δcm) equaled to the difference value of the perimeters measured after the FCA injection and before the FCA injection. (See the result in table 1.1 and 1.2) At the end of the experiment, the major organs of the rats were weighted. (See the table 1.3, 1.4)

[8] = Body weight of AA rats (prevention experiment); type: in vivo, SD rats; details: 0.01 g/kg
Method: as §1

[9] = tested on: rat AA model; experiment: Preventing effect on adjuvant arthritis (AA): swelling degree; type: in vivo, SD rats; details: 0.01 g/kg
Method: as §1

[10] = tested on: AA rats; experiment: Therapeutic effect on AA: swelling degree; type: in vivo, SD rats; details: 0.01 g/kg
Description: (§2) 50 male SD rats were divided into 5 groups at random. The model building was same to the prevention experiment, but the correspondent medicines were drenched 13 days after the injection of the FCA. The medicines were drenched once a day for 2 weeks. The swelling degree (Δcm) was the difference of the perimeters between the value of first administration day and the other days.

[11] = Organ index of AA rats (Table 1.7); type: in vivo, SD rats; details: 0.01 g/kg
Description: as §2

CN1CCC(=C2c3ccccc3CC(=O)c3sccc32)CC1 [Ketotifen]
PCA absorbancy ([1]; serum d1 (1:5)): 0.033 ± 0.024 | PCA value ([1]; serum d1 (1:5)): 2.78 ± 1.64 | PCA absorbancy ([1]; serum d2 (1:10)): 0.027 ± 0.019 | PCA value ([1]; serum d2 (1:10)): 0.67 ± 1.41

C[C@@H]1C[C@H]2[C@@H]3CCC4=CC(=O)C=C[C@]4(C)[C@@]3(F)[C@@H](O)C[C@]2(C)[C@@]1(O)C(=O)CO [cortisumman]
Percent of ear swelling [2]: 13.93 ± 4.41 | Percent of inhibition [2]: 59.3%

C[C@@H]1C[C@H]2[C@@H]3CCC4=CC(=O)C=C[C@]4(C)[C@@]3(F)[C@@H](O)C[C@]2(C)[C@@]1(O)C(=O)CO [dexamethasone]
Degree of ears' swelling [3]: 14.13 ± 5.75 mg | inhibition at 3 mg/kg ([3]; Mus musculus, 72 h, read-out: inhibition rate): 68.2% | Tincture exudation ([4]; 4 h): 0.085 ± 0.045 OD | Tincture exudation ([4]; 32 h): 0.063 ± 0.017 OD | Leakage of the tincture [5]: 0.11 ± 0.07 OD | Percent of phagocytosis [6]: 8.33 ± 10.13 % | phagocytosis index [6]: 1.10 ± 0.18

C[C@]12C=CC(=O)C=C1CC[C@@H]1[C@@H]2C(=O)C[C@@]2(C)[C@H]1CC[C@]2(O)C(=O)CO [prednisone]
Organ index [(organ weight/body weight)/100] Liver ([7]; 0.01 g/kg): 3.04 ± 0.20 | Organ index [(organ weight/body weight)/100] Spleen ([7]; 0.01 g/kg): 0.32 ± 0.08 | Organ index [(organ weight/body weight)/100] Thymus ([7]; 0.01 g/kg): 0.050 ± 0.060 | Organ index [(organ weight/body weight)/100] adrenal gland ([7]; 0.01 g/kg): 0.020 ± 0.004 | atrophy of the thymus and adrenal gland ([7]; AA rats, tables 1.4 and 1.7): atrophied | BW at 1 month later [8]: 244 ± 31 g | BW change [8]: -21 g | Initiative BW [8]: 264 ± 55 g | Swelling degree, left anklejoint and foot ([9]; 1 d): 0.64 ± 0.14 Δcm | Swelling degree, left anklejoint and foot ([9]; 2 d): 0.64 ± 0.16 Δcm | Swelling degree, left anklejoint and foot (Table 1.2) ([9]; 2 d): 0.20 ± 0.06 Δcm | Swelling degree, left anklejoint and foot ([9]; 3 d): 0.50 ± 0.26 Δcm | Swelling degree, left anklejoint and foot ([9]; 9 d): 0.46 ± 0.25 Δcm | Swelling degree, left anklejoint and foot (Table 1.2) ([9]; 9 d): 0.08 ± 0.08 Δcm | Swelling degree, left anklejoint and foot ([9]; 12 d): 0.72 ± 0.46 Δcm | Swelling degree, left anklejoint and foot (Table 1.2) ([9]; 12 d): 0.21 ± 0.16 Δcm | Swelling degree, left anklejoint and foot ([9]; 14 d): 0.87 ± 0.46 Δcm | Swelling degree, left anklejoint and foot (Table 1.2) ([9]; 14 d): 0.44 ± 0.43 Δcm | Swelling degree, left anklejoint and foot ([9]; 16 d): 1.28 ± 0.69 Δcm | Swelling degree, left anklejoint and foot (Table 1.2) ([9]; 16 d): 0.99 ± 0.63 Δcm | Swelling degree, left anklejoint and foot (Table 1.2) ([9]; 18 d): 0.84 ± 0.74 Δcm | Swelling degree, left anklejoint and foot ([9]; 20 d): 1.03 ± 0.67 Δcm | Swelling degree, left anklejoint and foot (Table 1.2) ([9]; 20 d): 0.82 ± 0.72 Δcm | Swelling degree, left anklejoint and foot ([9]; 22 d): 1.05 ± 0.69 Δcm | Swelling degree, left anklejoint and foot (Table 1.2) ([9]; 22 d): 0.79 ± 0.74 Δcm | Swelling degree, left anklejoint and foot ([9]; 24 d): 0.90 ± 0.64 Δcm | Swelling degree, left anklejoint and foot (Table 1.2) ([9]; 24 d): 0.75 ± 0.67 Δcm | Swelling degree, left anklejoint and foot ([9]; 26 d): 0.86 ± 0.65 Δcm | Swelling degree, left anklejoint and foot (Table 1.2) ([9]; 26 d): 0.68 ± 0.64 Δcm | Swelling degree, left anklejoint and foot ([9]; 28 d): 0.85 ± 0.59 Δcm | Swelling degree, left anklejoint and foot (Table 1.2) ([9]; 28 d): 0.71 ± 0.67 Δcm | Swelling degree, left anklejoint and foot ([10]; 1 d): 1.78 ± 0.51 Δcm | Swelling degree, left anklejoint and foot ([10]; 2 d): 1.70 ± 0.51 Δcm | Swelling degree, right anklejoint and foot ([10]; 2 d): 0.10 ± 0.13 Δcm | Swelling degree, left anklejoint and foot ([10]; 4 d): 1.63 ± 0.50 Δcm | Swelling degree, right anklejoint and foot ([10]; 4 d): 0.15 ± 0.28 Δcm | Swelling degree, left anklejoint and foot ([10]; 6 d): 1.58 ± 0.50 Δcm | Swelling degree, right anklejoint and foot ([10]; 6 d): 0.11 ± 0.25 Δcm | Swelling degree, left anklejoint and foot ([10]; 8 d): 1.27 ± 0.46 Δcm | Swelling degree, right anklejoint and foot ([10]; 8 d): −0.08 ± 0.34 Δcm | Swelling degree, left anklejoint and foot ([10]; 10 d): 1.09 ± 0.54 Δcm | Swelling degree, right anklejoint and foot ([10]; 10 d): −0.13 ± 0.28 Δcm | Swelling degree, left anklejoint and foot ([10]; 12 d): 0.94 ± 0.50 Δcm | Swelling degree, right anklejoint and foot ([10]; 12 d): −0.26 ± 0.36 Δcm | Swelling degree, left anklejoint and foot ([10]; 14 d): 0.94 ± 0.42 Δcm | Swelling degree, right anklejoint and foot ([10]; 14 d): −0.33 ± 0.39 Δcm | Organ index [(organ weight/body weight)/100] Liver [11]: 3.52 ± 0.35 | Organ index [(organ weight/body weight)/100] Spleen [11]: 0.28 ± 0.047 | Organ index [(organ weight/body weight)/100] Thymus [11]: 0.05 ± 0.011 | Organ index [(organ weight/body weight)/100] adrenal gland [11]: 0.02 ± 0.0043
